Where “and” joins values, the source holds several entries; their conditions need not be identical. Equal entries are not always repeated.
Tested on: BDF1 mice, Adenocarcinoma 755 s.c., tumor weight T/C
Test: NCI In Vivo Anticancer Drug Screen. Data for tumor model Adenocarcinoma 755 (subcutaneous) in B6D2F1 (BDF1) mice
Conditions: endpoint: mean tumor weight, higher = larger tumour
Procedure, shortened: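 Values express treated (T) relative to vehicle-dosed control (C) animals, based on survival or tumour size measured after compound treatment of mice bearing a transplanted tumour.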

[1] = dose: 25.0 mg/kg/injection, schedule: Q01DX011 (ip), vehicle: carboxymethylcellulose (CMC)
[2] = dose: 30.0 mg/kg/injection, schedule: Q01DX011 (ip), vehicle: carboxymethylcellulose (CMC)
[3] = dose: 60.0 mg/kg/injection, schedule: Q01DX011 (ip), vehicle: carboxymethylcellulose (CMC)
[4] = dose: 100.0 mg/kg/injection, schedule: Q01DX011 (ip), vehicle: carboxymethylcellulose (CMC)
[5] = dose: 25.0 mg/kg/injection, schedule: Q01DX011 (ip), vehicle: methylcellulose (MC)
[6] = dose: 6.25 mg/kg/injection, schedule: Q01DX011 (ip), vehicle: methylcellulose (MC)

CC(C)CN(C)/N=N/c1nc[nH]c1C(N)=O
T/C [1]: 40 % of control
T/C (dose: 37.5 mg/kg/injection, schedule: Q01DX011 (ip), vehicle: carboxymethylcellulose (CMC)): 22 % of control

O=C1NC(=O)C2(CCCc3ccc(N(CCCl)CCCl)cc32)N1 (stereo not given)
T/C (dose: 3.5 mg/kg/injection, schedule: Q01DX011 (ip), vehicle: carboxymethylcellulose (CMC)): 86 % of control
T/C (dose: 3.5 mg/kg/injection, schedule: Q01DX011 (ip), vehicle: other): 80 % of control
T/C (dose: 7.0 mg/kg/injection, schedule: Q01DX011 (ip), vehicle: carboxymethylcellulose (CMC)): 83 % of control
T/C (dose: 7.0 mg/kg/injection, schedule: Q01DX011 (ip), vehicle: other): 112 % of control
T/C (dose: 14.0 mg/kg/injection, schedule: Q01DX011 (ip), vehicle: carboxymethylcellulose (CMC)): 56 % of control
T/C (dose: 14.0 mg/kg/injection, schedule: Q01DX011 (ip), vehicle: other): 51 % of control
T/C (dose: 28.0 mg/kg/injection, schedule: Q01DX011 (ip), vehicle: carboxymethylcellulose (CMC)): 30 % of control
T/C (dose: 28.0 mg/kg/injection, schedule: Q01DX011 (ip), vehicle: other): 56 % of control
T/C (dose: 55.0 mg/kg/injection, schedule: Q01DX011 (ip), vehicle: carboxymethylcellulose (CMC)): 2 % of control
T/C (dose: 55.0 mg/kg/injection, schedule: Q01DX011 (ip), vehicle: other): 13 % of control

Cc1ccc(N(O)C(=O)Nc2ccccc2)cc1
T/C (dose: 100.0 mg/kg/injection, schedule: Q01DX011 (ip), vehicle: methylcellulose (MC)): 95 % of control
T/C (dose: 200.0 mg/kg/injection, schedule: Q01DX011 (ip), vehicle: methylcellulose (MC)): 80 % of control

Cn1c(=O)c2c(nc(N/N=C/c3cccc(Br)c3)n2C)n(C)c1=O
T/C [2]: 93 % of control
T/C [3]: 111 % of control
T/C (dose: 120.0 mg/kg/injection, schedule: Q01DX011 (ip), vehicle: carboxymethylcellulose (CMC)): 88 % of control

O=[N+]([O-])c1ccc(O)c([N+](=O)[O-])c1
T/C (dose: 3.35 mg/kg/injection, schedule: Q01DX011 (ip), vehicle: carboxymethylcellulose (CMC)): 60 % of control
T/C (dose: 3.92 mg/kg/injection, schedule: Q01DX011 (ip), vehicle: carboxymethylcellulose (CMC)): 57 % of control
T/C (dose: 6.7 mg/kg/injection, schedule: Q01DX011 (ip), vehicle: carboxymethylcellulose (CMC)): 92 % of control
T/C (dose: 7.85 mg/kg/injection, schedule: Q01DX011 (ip), vehicle: carboxymethylcellulose (CMC)): 54 % of control
T/C (dose: 13.4 mg/kg/injection, schedule: Q01DX011 (ip), vehicle: carboxymethylcellulose (CMC)): 64 % of control
T/C (dose: 15.7 mg/kg/injection, schedule: Q01DX011 (ip), vehicle: carboxymethylcellulose (CMC)): 53 % of control
T/C (dose: 26.8 mg/kg/injection, schedule: Q01DX011 (ip), vehicle: carboxymethylcellulose (CMC)): 91 % of control
T/C (dose: 31.4 mg/kg/injection, schedule: Q01DX011 (ip), vehicle: carboxymethylcellulose (CMC)): 78 % of control

FC(F)(F)c1nc(=S)c2[nH]cnc2[nH]1
T/C (dose: 6.0 mg/kg/injection, schedule: Q01DX011 (ip), vehicle: carboxymethylcellulose (CMC)): 70 % of control
T/C [1]: 81 % of control
T/C [4]: 89 % of control

CNc1ncnc2c1cnn2C1CCCO1 (stereo not given)
T/C (dose: 2.3 mg/kg/injection, schedule: Q01DX011 (ip), vehicle: methylcellulose (MC)): 71 % of control
T/C (dose: 4.6 mg/kg/injection, schedule: Q01DX011 (ip), vehicle: methylcellulose (MC)): 33 % of control
T/C (dose: 9.3 mg/kg/injection, schedule: Q01DX011 (ip), vehicle: methylcellulose (MC)): 14 % of control

Cn1c(=O)c2[nH]c(COCc3nc4c([nH]3)c(=O)n(C)c(=O)n4C)nc2n(C)c1=O
T/C [5]: 48 % of control
T/C (dose: 75.0 mg/kg/injection, schedule: Q01DX011 (ip), vehicle: methylcellulose (MC)): 65 % of control
T/C (dose: 225.0 mg/kg/injection, schedule: Q01DX011 (ip), vehicle: methylcellulose (MC)): 21 % of control

CCCOP(=S)(N1CC1C)N1CC1(C)C (stereo not given)
T/C (dose: 0.5 mg/kg/injection, schedule: Q01DX011 (ip), vehicle: carboxymethylcellulose (CMC)): 68 % of control
T/C (dose: 1.0 mg/kg/injection, schedule: Q01DX011 (ip), vehicle: carboxymethylcellulose (CMC)): 104 % of control
T/C (dose: 12.0 mg/kg/injection, schedule: Q01DX011 (ip), vehicle: carboxymethylcellulose (CMC)): 79 % of control
T/C (dose: 24.0 mg/kg/injection, schedule: Q01DX011 (ip), vehicle: carboxymethylcellulose (CMC)): 61 % of control

CC(=O)OCC(=O)C1(O)CCC2C3CCC4=CC(=O)CCC4(C)C34OC4CC21C (stereo not given)
T/C (dose: 25.0 mg/kg/injection, schedule: Q01DX011 (sc), vehicle: steriod suspending solution): 87 % of control
T/C (dose: 200.0 mg/kg/injection, schedule: Q01DX011 (sc), vehicle: steriod suspending solution): 44 % of control
T/C (dose: 450.0 mg/kg/injection, schedule: Q01DX011 (sc), vehicle: steriod suspending solution): 17 % of control

CCC1OCCN1C(C)C (stereo not given)
T/C (dose: 12.0 mg/kg/injection, schedule: Q01DX011 (ip), vehicle: other): 118 % of control
T/C [1]: 57 % of control
T/C (dose: 25.0 mg/kg/injection, schedule: Q01DX011 (ip), vehicle: other): 109 % of control
T/C (dose: 25.0 mg/kg/injection, schedule: Q01DX011 (ip), vehicle: saline): 84 % of control
T/C (dose: 50.0 mg/kg/injection, schedule: Q01DX011 (ip), vehicle: carboxymethylcellulose (CMC)): 33 % of control
T/C (dose: 50.0 mg/kg/injection, schedule: Q01DX011 (ip), vehicle: other): 223 % of control
T/C (dose: 50.0 mg/kg/injection, schedule: Q01DX011 (ip), vehicle: saline): 29 % of control

Cc1n[nH]c(=O)[nH]c1=O
T/C (dose: 400.0 mg/kg/injection, schedule: Q01DX011 (ip), vehicle: other): 59 % of control
T/C (dose: 800.0 mg/kg/injection, schedule: Q01DX011 (ip), vehicle: other): 72 % of control

CNc1nc(SCc2ccccc2)ncc1C
T/C (dose: 31.0 mg/kg/injection, schedule: Q01DX011 (ip), vehicle: methylcellulose (MC)): 60 % of control
T/C (dose: 125.0 mg/kg/injection, schedule: Q01DX011 (ip), vehicle: methylcellulose (MC)): 82 % of control
T/C (dose: 250.0 mg/kg/injection, schedule: Q01DX011 (ip), vehicle: methylcellulose (MC)): 52 % of control

Nc1nc(SCc2ccccn2)c2[nH]cnc2n1
T/C (dose: 0.78 mg/kg/injection, schedule: Q01DX011 (ip), vehicle: methylcellulose (MC)): 63 % of control
T/C (dose: 1.56 mg/kg/injection, schedule: Q01DX011 (ip), vehicle: methylcellulose (MC)): 14 % of control
T/C (dose: 3.12 mg/kg/injection, schedule: Q01DX011 (ip), vehicle: methylcellulose (MC)): 3 % of control
T/C [6]: 2 % of control

CSc1nc(N)nc2nc[nH]c12
T/C (dose: 0.6 mg/kg/injection, schedule: Q01DX011 (ip), vehicle: carboxymethylcellulose (CMC)): 51 % of control
T/C (dose: 1.25 mg/kg/injection, schedule: Q01DX011 (ip), vehicle: carboxymethylcellulose (CMC)): 55 % of control
T/C (dose: 2.5 mg/kg/injection, schedule: Q01DX011 (ip), vehicle: carboxymethylcellulose (CMC)): 75 % of control
T/C (dose: 5.0 mg/kg/injection, schedule: Q01DX011 (ip), vehicle: carboxymethylcellulose (CMC)): 28 % of control
T/C (dose: 15.0 mg/kg/injection, schedule: Q01DX011 (ip), vehicle: carboxymethylcellulose (CMC)): 1 % of control

CCN(CC)CCOc1ccc(/C=N/Nc2nc3c(c(=O)n(C)c(=O)n3C)n2C)cc1
T/C [2]: 94 % of control
T/C [3]: 113 % of control
T/C (dose: 240.0 mg/kg/injection, schedule: Q01DX011 (ip), vehicle: carboxymethylcellulose (CMC)): 102 % of control and 124 % of control

CCCSc1nc(N)nc2c1ncn2CC(C)C
T/C [6]: 31 % of control
T/C (dose: 12.5 mg/kg/injection, schedule: Q01DX011 (ip), vehicle: methylcellulose (MC)): 25 % of control
T/C [5]: 4 % of control
T/C (dose: 50.0 mg/kg/injection, schedule: Q01DX011 (ip), vehicle: methylcellulose (MC)): 1 % of control

ClCCn1cnc2c(SCc3ccccc3Cl)ncnc21
T/C (dose: 0.5 mg/kg/injection, schedule: Q01DX011 (ip), vehicle: other): 91 % of control
T/C (dose: 0.5 mg/kg/injection, schedule: Q01DX011 (oral), vehicle: other): 74 % of control
T/C (dose: 1.0 mg/kg/injection, schedule: Q01DX011 (ip), vehicle: other): 84 % of control
T/C (dose: 2.0 mg/kg/injection, schedule: Q01DX011 (ip), vehicle: other): 42 % of control and 47 % of control
T/C (dose: 2.0 mg/kg/injection, schedule: Q01DX011 (oral), vehicle: other): 109 % of control
T/C (dose: 4.0 mg/kg/injection, schedule: Q01DX011 (oral), vehicle: other): 75 % of control and 81 % of control
T/C (dose: 8.0 mg/kg/injection, schedule: Q01DX011 (ip), vehicle: other): 3 % of control
T/C (dose: 8.0 mg/kg/injection, schedule: Q01DX011 (oral), vehicle: other): 25 % of control and 32 % of control
T/C (dose: 15.0 mg/kg/injection, schedule: Q01DX011 (oral), vehicle: other): 5 % of control and 13 % of control
T/C (dose: 30.0 mg/kg/injection, schedule: Q01DX011 (oral), vehicle: other): 1 % of control
T/C [4]: 3 % of control

— PubChem BioAssay AID180 (DTP/NCI, 2004)
